Measurements: patent publication US11166914B2, “Tumor therapeutic agent and kit containing gemcitabine liposome composition” (FUJIFILM Corporation, priority 2015, dated 2021)
Where a name gives a salt, the structure may show the parent alone.

Columns and labels:
malignant tumors = settings: gemcitabine single agent, cancer patients; N Engl J Med 2013, 369 (18), 1691-1703; cited from earlier work
[1] = system: Capan-1 cells of a human pancreatic cancer cell strain; test: Pharmacological test on Capan-1 subcutaneous transplantation tumor-bearing mouse model; type: in vivo, female nude mouse; settings: single agent, no Abx; Gem 240 mg/kg or composition A 3 mg/kg as gemcitabine; tail vein once a week for 3 weeks from day 17
Method: The volume of a tumor was calculated using the following equation by measuring the major axis (a) and the minor axis (b) of the tumor with calipers. (a×b^2)×0.5 (where “a” is the major axis and “b” is the minor axis.) Equation: […]
Gemcitabine (hereinafter, also referred to as Gem), abraxane (hereinafter, also referred to as Abx), and a gemcitabine-contained liposome composition (hereinafter, also referred to as a composition A) were used as test substances.
Gem was prepared by dissolving gemcitabine hydrochloride (manufactured by TEVA) in physiological saline. Abx obtained by dissolving abraxane (manufactured by Celgene) in physiological saline was used. A gemcitabine-contained liposome composition prepared in Reference Example 1 was used.
1×10^7 Capan-1 cells of a human pancreatic cancer cell strain were transplanted subcutaneously into the flank of a female nude mouse to form subcutaneous tumors. The effect of controlling the subcutaneous tumor in combination administration of Abx and the composition A was evaluated using the volume of the tumor as an index. As test substances, a sucrose solution was used as a group 1, Gem was used as a group 2, a composition A was used as a group 3, Abx and Gem were respectively used as a group 4 and a group 5, and Abx and a composition A were respectively used as a group 6 and a group 7. Groups 1 to 5 are comparative examples and groups 6 and 7 are examples. All test substances were administered to the tail vein once a week from day 17 after transplantation for a total of 3 weeks.
Tukey's multiple comparisons test was performed as a statistical analysis, and a P value less than 5% among the groups was determined to indicate that there is a statistically significant difference. Graphpad Prism version 5.03 was used for data processing.

[2] = gemcitabine single agent; background statement; cited from earlier work

For `Nc1ccn([C@@H]2O[C@H](CO)[C@@H](O)C2(F)F)c(=O)n1` [Gem, gemcitabine hydrochloride], the “Efficiency of single agent to a tumor” value (malignant tumors) is listed as 10%, the Median survival period (malignant tumors) is listed as 6.7 months and the “Number of days until tumor volume average value of 2,000 mm^3 is reached” value [1] is listed as 52 days. The “Tumor regression rate from start of medication” value [1] was “N.R”, the “Tumor volume average value on day 38 after transplantation” value [1] was 1397^a) mm^3 and the “Retention time in blood” value [2] was 20 min.
